Source: patent publication US20240246941A1, “SUBSTITUTED 4-(3-AMINOPROP-1-YL)AMINOQUINOLINE ANALOGS AS MODULATORS OF MELANOMA-ASSOCIATED ANTIGEN 11 UBIQUITIN LIGASE” (ST. JUDE CHILDREN'S RESEARCH HOSPITAL, INC., priority 2020, published 2024)

What follows are compounds tested against interaction between GST-MAGEA11 MHD and FAM-PCF11_4 peptide (MAGE-A11:PCF11) (Homo sapiens (Human), UniProt P43364) (assay: TR-FRET dose response competition assay for disruption of MAGE-A11:PCF11 binding). Conditions: Dose response TR-FRET screening of nine scaffold groups against MAGE-A11:PCF11; read-out: consensus IC50.
From the text: TR-FRET Assays and High-throughput Screen. Terbium-anti-GST antibody, 1 M Tris pH 7.5 1 M MgCl2 and 1 M DTT were purchased from Invitrogen (Carlsbad, CA), BSA was purchased from Sigma (St. Louis, MO). Dimethyl sulfoxide (DMSO) was purchased from Fisher Scientific (Pittsburgh, PA). Black 384-well low volume plates and 384-well polypropylene compound plates were purchased from Corning Incorporated (Tewksbury, MA). The St. Jude FDA drug and Bioactive library (11,293 chemicals), Drug-like library (10,073 chemicals) and Lead-like library (10,041 chemicals) were custom assembled and purchased from commercial sources including Sigma, Microsource (Gaylordsville, CT), selleckchem (Houston, TX), ChemDiv (San Diego, CA), ChemBridge (San Diego, CA), Enamine (Monmouth Jct., NJ), and Life Chemicals (Niagara-on-the-Lake, ON, Canada). They were arrayed (10 mM in DMSO) in 384-well polypropylene compound plates with columns 1, 2, 13 and 14 empty which were reserved for controls.
The TR-FRET assay buffer with a formula of 50 mM Tris pH 7.5, 20 mM MgCl2, 0.1 mg/ml BSA and 1 mM DTT was freshly prepared before each experiment. All TR-FRET assays were performed in black 384-well plates with 20 μl/well assay volume in the TR-FRET assay buffer at room temperature (approximately 25° C.). All peptides or compounds were solubilized in DMSO. To test the competitive activity of peptides or compounds against the interaction between GST-MAGEA11 MHD and FAM-PCF11_4 peptide, 10 μl/well peptide or compound at specified concentration was dispensed into a black 384-well low volume plate, followed by 5 μl/well FAM-PCF11_4 (800 nM), 5 μl/well Tb-anti-GST (20 nM) and GST-MAGEA11 MHD (20 nM). The assay components in each well was then mixed by shaking the plate on an IKA MTS 2/4 digital microtiter plate shaker (IKA Works; Wilmington, NC, USA) at 900 RPM for 1 minute. The plate was further centrifuged in an Eppendorf 5810 centrifuge with an A-4-62 swing-bucket rotor (Eppendorf AG, Hamburg, Germany) at 201 g (1000 rpm) for 30 seconds. The plate was then incubated for 90 min with a lid to avoid light exposure to the assay components. After incubation, the fluorescent emission signals at 520 nm and 490 nm channels of individual wells were measured with a PHERAstar FS plate reader (BMG Labtech; Durham, NC, USA) by using a 340 nm excitation filter, 100 μs delay time, and 200 μs integration time. The TR-FRET fluorescence emission ratio (TR-FRET signal) for each well was presented as 10 000×520 nm/490 nm, which was used directly for curve fitting, or further converted to % Inhibition based on the respective positive and negative controls. The graphic software GraphPad Prism 4.81 (GraphPad Software; La Jolla, CA, USA) was used to generate curves and derive IC50 values of tested peptides or compounds, if applicable.
TR-FRET inhibitory activity characterization of a panel of PCF11 peptides against the interaction between GST-MAGEA11 MHD and FAM-PCF11_4 was performed as follows. In a 20 μl/well assay volume, dilutions of PCF11_1 to PCF11_8 peptides (concentrations ranged from 3.1 nM to 100 μM for peptides PCF11_4, PCF11_5, PCF11_6 and PCF11_8 in a 1-to-2 dilution pattern for 16 concentration levels, and ranged from 48.9 nM to 100 μM for peptides of PCF11_1, PCF11_2, PCF11_3 and PCF11_7 in a 1-to-2 dilution pattern for 12 concentration levels), 200 nM FAM-PCF11_4, 5 nM Tb-anti-GST and 5 nM GST-MAGEA11 were mixed together and incubated for 90 min before the TR-FRET signal for each well was measured. The final DMSO concentration was 1.1% (v/v). […] The signal of each peptide-treated well (Signalpeptide) was normalized to the positive and negative controls to derive % inhibition of the peptide at a specific concentration with equation 1. Where applicable, the % Inhibition data were fit into a Sigmoidal dose response equation to derive IC50 values.
TR-FRET screen for identifying MAGEA11 small molecule inhibitors was performed as follows.

Sequence of interaction between GST-MAGEA11 MHD and FAM-PCF11_4 peptide (MAGE-A11:PCF11) (P43364 218-429): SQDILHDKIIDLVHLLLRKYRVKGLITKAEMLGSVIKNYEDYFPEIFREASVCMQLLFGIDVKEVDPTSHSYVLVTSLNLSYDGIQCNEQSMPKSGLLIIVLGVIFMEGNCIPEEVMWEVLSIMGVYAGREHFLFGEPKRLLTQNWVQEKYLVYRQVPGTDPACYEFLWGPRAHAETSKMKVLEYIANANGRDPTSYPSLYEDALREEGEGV

SMILES	IC50
COc1ccc(CNC(=O)Cn2cnc3cc(-c4ccc(OC)cc4)sc3c2=O)cc1 [SJ000441316-1]	69.9 µM
c1cc(CNCCCNc2ccnc3cc(-c4ccc5c(c4)OCO5)ccc23)c2c(c1)OCO2 [SJ000311292-1]	30.5 µM
COc1cccc(CNCCCNc2ccnc3cc(CCc4ccccc4)ccc23)c1O [SJ000311255-1]	26.5 µM
CCCCn1c(-c2ccc(OCCC)c(OCC)c2)nc2c1c(=O)[nH]c(=O)n2CCC [SJ000378906-1]	69.9 µM
CCn1c2ccccc2c2cc(CN3CCN(S(=O)(=O)CC)CC3)ccc21 [SJ000168321-1]	69.9 µM
COc1ccc(C2Nc3ccccc3C(=O)N2Cc2ccccc2)cc1CN1C(=O)c2ccccc2C1=O (stereo not shown) [SJ000295698-1]	69.9 µM
CCCCn1c(=O)[nH]c(=O)c2c1nc(-c1ccc(OCC)c(OC)c1)n2CCOC [SJ000427387-1]	69.9 µM
CCOc1ccc(N(C(C)=O)C2=C(N)C(=O)c3ccccc3C2=O)cc1 [SJ000558312-2]	65.7 µM
Cc1ccc(S(=O)(=O)c2nc(-c3ccccc3Br)oc2N2CCOCC2)cc1 [SJ000185415-1]	69.9 µM
CC(C)c1ccc(-c2nc3c(=O)n(C)c(=O)n(C)c3[nH]2)cc1 [SJ000203904-1]	69.9 µM
CCCSc1nc2cc(-c3ccccc3)sc2c(=O)n1CCN1CCOCC1 [SJ000453419-1]	69.9 µM
O=C1C(Cl)=C(N2CCN(S(=O)(=O)c3ccc(Br)cc3)CC2)C(=O)c2ccccc21 [SJ000033014-1]	69.9 µM
FC(F)(F)c1ccc2c(NCCCNCc3ccccc3C(F)(F)F)ccnc2c1 [SJ000521049-1]	69.9 µM
COc1ccc(F)cc1CNCCCNc1ccnc2cc(CC3CCCCC3)ccc12 [SJ000311253-1]	26.3 µM
CC(=O)NC1=C(Cl)C(=O)c2ccccc2C1=O [SJ000067071-3]	69.9 µM
COCCNC(=O)Cn1cnc2cc(-c3ccc(Cl)cc3)sc2c1=O [SJ000395304-1]	69.9 µM
CCOC(=O)c1ccc(NC2=C(N)C(=O)c3ccccc3C2=O)cc1 [SJ000032711-1]	69.9 µM
O=S(=O)(c1ccc(Cl)cc1)c1nc(-c2cccc(Br)c2)oc1N1CCOCC1 [SJ000027481-1]	9.2 µM
Cc1cccc(CNCCCNc2ccnc3cc(Cl)ccc23)c1 [SJ000523066-1]	69.9 µM
O=C1C(Cl)=C(Nc2cccc(Br)c2)C(=O)c2ccccc21 [SJ000048680-1]	69.9 µM
COc1ccc(-c2ccc3c(NCCCNCc4cccc5c4OCO5)ccnc3c2)cc1 [SJ000311296-1]	69.9 µM
O=C1c2ccccc2NC(c2ccc(F)c(F)c2)N1CCCN1CCOCC1 (stereo not shown) [SJ000803757-1]	58.4 µM

SMILES	IC50
CN(C)c1ccc(CNCCCNc2ccnc3cc(Cl)ccc23)c2ccccc12 [SJ000523054-1]	69.9 µM
CCn1c2ccccc2c2cc(C(C)NC=O)ccc21 (stereo not shown) [SJ000461805-1]	69.9 µM
CCCn1c(=O)[nH]c(=O)c2c1nc(-c1ccc(SC)cc1)n2CCOC [SJ000416762-1]	69.9 µM
CCn1c2ccccc2c2cc(CNCCc3ccccc3)ccc21 [SJ000111712-1]	69.9 µM
CCCn1c(=O)[nH]c(=O)c2c1nc(-c1cccc(C)c1)n2CCOC [SJ000423281-1]	69.9 µM
Cc1cccc(NC2=C(Cl)C(=O)c3ccccc3C2=O)c1 [SJ000024925-1]	69.9 µM
COC(=O)c1cccc(NC2=C(Cl)C(=O)c3ccccc3C2=O)c1 [SJ000024926-1]	69.9 µM
CCCCn1c(=O)[nH]c(=O)c2c1nc(-c1ccc(OCC(C)C)c(OCC)c1)n2CC [SJ000378903-1]	69.9 µM
CCCN1C(=O)c2ccccc2NC1c1ccc(OC)c(COc2ccccc2F)c1 (stereo not shown) [SJ000295736-1]	69.9 µM
CCCOc1ccc(C2Nc3ccccc3C(=O)N2CCCN2CCOCC2)cc1 (stereo not shown) [SJ000803758-1]	72.1 µM
CNC1=C(Cl)C(=O)c2ccccc2C1=O [SJ000141461-1]	69.9 µM
c1cc(CNCCCNc2ccnc3cc(CC4CCCCC4)ccc23)c2c(c1)OCO2 [SJ000311252-1]	16 µM
O=C1c2ccccc2NC(c2ccc([N+](=O)[O-])cc2)N1Cc1ccccc1 (stereo not shown) [SJ000051049-1]	69.9 µM
CCOc1ccc(C2Nc3ccccc3C(=O)N2CCCN2CCOCC2)cc1 (stereo not shown) [SJ000803759-1]	67.7 µM
COc1ccc(C2=C(c3ccc([N+](=O)[O-])cc3)C(=O)OC2)cc1 [SJ000367280-1]	69.9 µM
O=C1c2ccccc2NC(c2ccc(F)cc2)N1Cc1ccccc1 (stereo not shown) [SJ000026596-1]	69.9 µM
COc1ccc(OC(F)(F)F)cc1CNCCCNc1ccnc2cc(Cl)ccc12 [SJ000521035-1]	69.9 µM
CCc1ccc(CNCCCNc2ccnc3cc(C(F)(F)F)ccc23)cc1 [SJ000521067-1]	40.9 µM
O=C(NCC(O)CO)c1ccc2[nH]c3ccccc3c2c1 (stereo not shown) [SJ000053810-1]	69.9 µM
CC(C)CCc1ccc2c(NCCCNCc3cccc4c3OCO4)ccnc2c1 [SJ000311248-1]	27.7 µM
O=[N+]([O-])c1ccc(CNCCCNc2ccnc3cc(Cl)ccc23)cc1O [SJ000311191-1]	69.9 µM

Same assay, conditions: Table 5, dose response TR-FRET screening of 59 quinoline compounds against MAGE-A11:PCF11; read-out: TR-FRET IC50

SMILES	IC50
Cc1cc(C)cc(Cc2ccc3c(NCCCNCc4ccco4)ccnc3c2)c1 [SJ000311318-2]	> 70 µM
CCCN(CCCNc1ccnc2cc(Cl)ccc12)Cc1cc(C(F)(F)F)ccc1OC [SJ000523012-1]	> 70 µM
c1coc(CNCCCNc2ccnc3cc(-c4ccc5c(c4)OCO5)ccc23)c1 [SJ000311290-1]	> 70 µM
FC(F)(F)Oc1cccc(CN(CCCCNc2ccnc3cc(Cl)ccc23)Cc2ccccc2)c1 [SJ000520457-1]	> 70 µM

Same assay, conditions: Table 8, representative compounds; read-out: TR-FRET IC50

SMILES	IC50
COc1cccc(CNCCC/N=C2/C=CNC3=CC=C(CC(C)C)C=CC32)c1O (stereo not shown) [SJ000311259]	68.5 µM
COc1ccc(F)cc1CNCCCNc1ccnc2cc(CC(C)C)ccc12 [SJ000311261]	69.9 µM
FC(F)(F)c1cccc(CNCCCNc2ccnc3cc(C(F)(F)F)ccc23)c1 [SJ000521047]	69.9 µM
CC(C)Cc1ccc2c(NCCCNCc3cccc4c3OCO4)ccnc2c1 [SJ000311260]	69.9 µM
FC(F)(F)c1ccc2c(NCCCNCc3c4ccccc4cc4ccccc34)ccnc2c1 [SJ000361126]	69.9 µM
Clc1ccc2c(NCCCNCc3ccc4c(c3)OCO4)ccnc2c1 [SJ000523056]	69.9 µM
COc1ccc(-c2ccc3c(NCCCNCc4cc(F)ccc4OC)ccnc3c2)cc1 [SJ000311297]	69.9 µM
COc1cccc(Oc2ccc3c(NCCCNCc4cccc(OC)c4O)ccnc3c2)c1 [SJ000311215]	69.9 µM
Cc1cc(C)cc(Cc2ccc3c(NCCCNCc4cccc5c4OCO5)ccnc3c2)c1 [SJ000311320]	16.3 µM
FC(F)(F)c1ccccc1CNCCCNc1ccnc2cc(Cl)ccc12 [SJ000520908]	69.9 µM
Fc1ccc(-c2ccc3c(NCCCNCc4cccc5c4OCO5)ccnc3c2)cc1 [SJ000311240]	25 µM
CC(C)(C)c1ccc(O)c(CNCCCNc2ccnc3cc(Cl)ccc23)c1 [SJ000311193]	30.4 µM
Clc1ccc2c(NCCCNCc3ccc(-c4ccccc4)cc3)ccnc2c1 [SJ000523064]	34.9 µM
Fc1ccc2c(NCCCNCc3ccc(OC(F)(F)F)cc3)ccnc2c1 [SJ000834150]	> 67.3 µM
